# Compound: CC1=CC(=C(N1C2=CC=C(C=C2)Cl)C)C(=O)CN3CCCCC3 [IU1-47] + COc1cccc2cc(-c3nc([C@H]4CC[C@H](C(=O)O)CC4)n4ncnc(N)c34)[nH]c12 [OSI-027] (partner 0.5 µM)
# Assay: relative viability (nuclei count vs DMSO), 5 days (fraction); higher = more cells survive
# Details: first compound 0.08 µM
# In short: (§1)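 Dosing by pin tool came one day after lung cancer cell lines were seeded in 1536-well plates, using either one drug or a fixed anchor-drug dose plus five library-drug doses (not always all listed) in √10 steps. After 5 days, nuclei were counted on 4× images. Relative viability is treated-well nuclei count divided by vehicle-well nuclei count, and values are medians of duplicate plates.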
row,Cell Line,relative viability
1,NCI-H522,0.751
2,NCI-H1623,0.452
3,NCI-H727,0.634
4,NCI-H1650,0.502
5,NCI-H1993,0.492
6,SW 1573,0.675
7,NCI-H838,0.405
8,LCLC-103H,0.508
9,NCI-H520,0.261
10,NCI-H2126,0.729
11,EMC-BAC-2,0.392
12,NCI-H2085,0.724
13,HCC-366,1.07
14,NCI-H1666,0.914
15,NCI-H596,0.817
16,LK-2,0.219
17,NCI-H2087,0.834
18,NCI-H2342,0.668
19,SK-MES-1,0.668
20,H3255,0.654
21,COR-L23,0.831
22,COR-L 105,0.746
23,LOU-NH91,0.798
24,ChaGo-K-1,0.485
25,NCI-H2170,0.865
26,NCI-H1648,0.264
27,NCI-H1563,0.809

# Same assay, conditions: first compound 0.253 µM
row,Cell Line,relative viability
1,NCI-H522,0.592
2,NCI-H1623,0.451
3,NCI-H727,0.659
4,NCI-H1650,0.438
5,NCI-H1993,0.586
6,SW 1573,0.618
7,NCI-H838,0.424
8,LCLC-103H,0.492
9,NCI-H520,0.27
10,NCI-H2126,0.883
11,EMC-BAC-2,0.368
12,NCI-H2085,0.748
13,HCC-366,0.934
14,NCI-H1666,0.86
15,NCI-H596,0.62
16,LK-2,0.199
17,NCI-H2087,0.582
18,NCI-H2342,0.69
19,SK-MES-1,0.674
20,H3255,0.675
21,COR-L23,0.977
22,COR-L 105,0.634
23,LOU-NH91,0.776
24,ChaGo-K-1,0.535
25,NCI-H2170,0.725
26,NCI-H1648,0.295
27,NCI-H1563,0.782

# Same assay, conditions: first compound 0.8 µM
row,Cell Line,relative viability
1,NCI-H522,0.56
2,NCI-H1623,0.449
3,NCI-H727,0.724
4,NCI-H1650,0.645
5,NCI-H1993,0.498
6,SW 1573,0.583
7,NCI-H838,0.428
8,LCLC-103H,0.472
9,NCI-H520,0.305
10,NCI-H2126,0.673
11,EMC-BAC-2,0.374
12,NCI-H2085,0.872
13,HCC-366,1.17
14,NCI-H1666,0.901
15,NCI-H596,0.743
16,LK-2,0.184
17,NCI-H2087,0.506
18,NCI-H2342,0.578
19,SK-MES-1,0.606
20,H3255,0.624
21,COR-L23,0.845
22,COR-L 105,0.711
23,LOU-NH91,0.728
24,ChaGo-K-1,0.589
25,NCI-H2170,0.645
26,NCI-H1648,0.251
27,NCI-H1563,0.785

# Same assay, conditions: first compound 2.53 µM
row,Cell Line,relative viability
1,NCI-H522,0.572
2,NCI-H1623,0.434
3,NCI-H727,0.525
4,NCI-H1650,0.521
5,NCI-H1993,0.498
6,SW 1573,0.216
7,NCI-H838,0.417
8,LCLC-103H,0.484
9,NCI-H520,0.3
10,NCI-H2126,0.539
11,EMC-BAC-2,0.38
12,NCI-H2085,0.531
13,HCC-366,0.692
14,NCI-H1666,0.879
15,NCI-H596,0.814
16,LK-2,0.188
17,NCI-H2342,0.517
18,SK-MES-1,0.348
19,H3255,0.465
20,COR-L23,0.901
21,COR-L 105,0.581
22,LOU-NH91,0.726
23,ChaGo-K-1,0.41
24,NCI-H2170,0.722
25,NCI-H1648,0.266
26,NCI-H1563,0.757

# Same assay, conditions: first compound 8 µM
row,Cell Line,relative viability
1,NCI-H522,0.619
2,NCI-H1623,0.391
3,NCI-H727,0.454
4,NCI-H1650,0.412
5,NCI-H1993,0.567
6,SW 1573,0.607
7,NCI-H838,0.447
8,LCLC-103H,0.416
9,NCI-H520,0.206
10,NCI-H2126,0.649
11,EMC-BAC-2,0.362
12,NCI-H2085,0.729
13,HCC-366,1.27
14,NCI-H1666,0.817
15,NCI-H596,0.739
16,LK-2,0.184
17,NCI-H2087,0.531
18,NCI-H2342,0.619
19,SK-MES-1,0.509
20,H3255,0.561
21,COR-L23,0.563
22,COR-L 105,0.57
23,LOU-NH91,0.685
24,ChaGo-K-1,0.489
25,NCI-H2170,0.727
26,NCI-H1648,0.277
27,NCI-H1563,0.663

# Compound: CC1=CC(=C(N1C2=CC=C(C=C2)Cl)C)C(=O)CN3CCCCC3 [IU1-47] + CC(=O)c1c(C)c2cnc(Nc3ccc(N4CCNCC4)cn3)nc2n(C2CCCC2)c1=O [Palbociclib] (partner 0.5 µM)
# Assay: as above
# Details: first compound 0.08 µM
# In short: as §1
row,Cell Line,relative viability
1,NCI-H522,0.987
2,NCI-H727,0.642
3,NCI-H1650,0.322
4,NCI-H1993,0.854
5,SW 1573,0.357
6,NCI-H838,0.181
7,LCLC-103H,0.551
8,NCI-H520,0.218
9,NCI-H2126,0.392
10,EMC-BAC-2,0.521
11,NCI-H2085,0.444
12,HCC-366,0.409
13,NCI-H1666,0.695
14,LK-2,1.04
15,NCI-H2087,0.204
16,NCI-H2342,0.564
17,SK-MES-1,0.282
18,H3255,0.351
19,COR-L23,0.313
20,COR-L 105,0.479
21,LOU-NH91,0.524
22,ChaGo-K-1,0.96
23,NCI-H2170,0.461
24,NCI-H1648,0.285

# Same assay, conditions: first compound 0.253 µM
row,Cell Line,relative viability
1,NCI-H522,0.988
2,NCI-H727,0.648
3,NCI-H1650,0.313
4,NCI-H1993,0.698
5,SW 1573,0.385
6,NCI-H838,0.222
7,LCLC-103H,0.531
8,NCI-H520,0.227
9,NCI-H2126,0.352
10,EMC-BAC-2,0.541
11,NCI-H2085,0.458
12,HCC-366,0.421
13,NCI-H1666,0.652
14,LK-2,1.03
15,NCI-H2087,0.302
16,NCI-H2342,0.569
17,SK-MES-1,0.332
18,H3255,0.329
19,COR-L23,0.32
20,COR-L 105,0.449
21,LOU-NH91,0.533
22,ChaGo-K-1,0.915
23,NCI-H2170,0.463
24,NCI-H1648,0.289

# Same assay, conditions: first compound 0.8 µM
row,Cell Line,relative viability
1,NCI-H522,1.36
2,NCI-H727,0.606
3,NCI-H1650,0.27
4,NCI-H1993,0.659
5,SW 1573,0.379
6,NCI-H838,0.225
7,LCLC-103H,0.506
8,NCI-H520,0.223
9,NCI-H2126,0.359
10,EMC-BAC-2,0.512
11,NCI-H2085,0.488
12,HCC-366,0.349
13,NCI-H1666,0.695
14,LK-2,0.568
15,NCI-H2087,0.239
16,NCI-H2342,0.487
17,SK-MES-1,0.292
18,H3255,0.331
19,COR-L23,0.284
20,COR-L 105,0.399
21,LOU-NH91,0.539
22,ChaGo-K-1,1.05
23,NCI-H2170,0.455
24,NCI-H1648,0.282

# Same assay, conditions: first compound 2.53 µM
row,Cell Line,relative viability
1,NCI-H522,0.845
2,NCI-H727,0.686
3,NCI-H1650,0.317
4,NCI-H1993,0.558
5,SW 1573,0.509
6,NCI-H838,0.232
7,LCLC-103H,0.478
8,NCI-H520,0.204
9,NCI-H2126,0.364
10,EMC-BAC-2,0.507
11,NCI-H2085,0.463
12,HCC-366,0.546
13,NCI-H1666,0.682
14,LK-2,0.68
15,NCI-H2087,0.174
16,NCI-H2342,0.527
17,SK-MES-1,0.34
18,H3255,0.289
19,COR-L23,0.245
20,COR-L 105,0.388
21,LOU-NH91,0.431
22,ChaGo-K-1,0.897
23,NCI-H2170,0.411
24,NCI-H1648,0.249

# Same assay, conditions: first compound 8 µM
row,Cell Line,relative viability
1,NCI-H522,0.956
2,NCI-H727,0.669
3,NCI-H1650,0.287
4,NCI-H1993,0.513
5,SW 1573,0.31
6,NCI-H838,0.236
7,LCLC-103H,0.469
8,NCI-H520,0.237
9,NCI-H2126,0.395
10,EMC-BAC-2,0.519
11,NCI-H2085,0.496
12,HCC-366,0.327
13,NCI-H1666,0.63
14,LK-2,0.559
15,NCI-H2087,0.25
16,NCI-H2342,0.519
17,SK-MES-1,0.273
18,H3255,0.322
19,COR-L23,0.279
20,COR-L 105,0.438
21,LOU-NH91,0.507
22,ChaGo-K-1,0.819
23,NCI-H2170,0.382
24,NCI-H1648,0.265

# Compound: Cc1nc(C(=O)NCC(=O)O)c(O)c2ccc(Oc3ccccc3)cc12 [FG-4592] + N=C(N)NC(=N)NCCc1ccccc1 [Phenformin] (partner 250 µM)
# Assay: as above
# Details: first compound 0.08 µM
# In short: as §1
row,Cell Line,relative viability
1,NCI-H522,0.711
2,NCI-H1623,0.607
3,NCI-H727,0.543
4,NCI-H1650,0.464
5,NCI-H1993,0.513
